Measurements as given in patent publication US20150344457A1, “METHODS OF INHIBITING PRMT5” (EPIZYME, INC., priority 2012, published 2015).

Assays:
Z-138 cells [1] = assay: Z-138 Methylation Assay (In Cell Western for symmetric di-methyl arginine and DNA content); assay type: cell-based; conditions: Homo sapiens, Table D-2, read-out: ICW EC50
Summary of the method: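 Symmetric di-methyl arginine signal (800 nm) ratioed to DNA content (700 nm) by In Cell Western after four days of compound treatment of Z-138 suspension cells seeded at 50,000 cells/mL. Percent inhibition set between DMSO and 3 μM reference wells; IC50 curves from triplicates.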

Z-138 cells [2] = assay: Z-138 Proliferation Assay (Cell Titer Glo, 5 days); assay type: cell-based; conditions: Homo sapiens, Table D-2
Summary of the method: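 Exponentially growing Z-138 cells (10,000 cells/ml) in RPMI 1640 with 10% FBS are exposed to nine-point 3-fold dilutions (final top concentration 20 μM, 0.2% DMSO) for 5 days at 37° C. Viability is measured as ATP by CellTiter-Glo luminescence. The 50% inhibitory concentration comes from a 4-parameter fit.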

| SMILES | EC50 (Z-138 cells [1]) [µM] | EC50 (Z-138 cells [2]) [µM] |
| --- | --- | --- |
| O=C(c1ccc(Cn2nccc2-c2ccc(OCC(O)CN3CCc4ccccc4C3)cc2)cc1)N1CCCC1 (stereo not shown) [Compound D31] | 1 to 10 | 10 to 40 |
| COC(COc1cccc(CNC2CCCC2)c1)CN1CCc2ccccc2C1 (stereo not shown) [Compound D32] | > 20 | > 40 |
| OC(CNc1cccc(CNC2CCCC2)c1)CN1CCc2ccccc2C1 (stereo not shown) [Compound D39] | 1 to 10 | > 20 |
| OC(COc1cccc(-c2ccccc2)c1)CN1CCc2ccccc2C1 (stereo not shown) [Compound D43] | 1 to 10 | > 20 |
| Cn1cnc2ccc(-c3cccc(OCC(O)CN4CCc5ccccc5C4)c3)cc21 (stereo not shown) [Compound D45] | 0.101 to 1 | 1 to 10 |
| OC(COc1ccc(C2CCCNC2)cc1)CN1CCc2ccccc2C1 (stereo not shown) [Compound D47] | 0.101 to 1 | 1 to 10 |
| CC(Oc1cccc(CNC2CCCC2)c1)C(O)CN1CCc2ccccc2C1 (stereo not shown) [Compound D49] | 0.101 to 1 | 1 to 10 |
| CN(CC(O)CN1CCc2ccccc2C1)c1cccc(CNC2CCCC2)c1 (stereo not shown) [Compound D53] | 0.101 to 1 | 10 to 40 |
| OC(COc1cccc(-c2ccc3cn[nH]c3c2)c1)CN1CCc2ccccc2C1 (stereo not shown) [Compound D58] | 1 to 10 | 10 to 40 |
| OC(COc1cccc(-c2ccc3c(c2)OCO3)c1)CN1CCc2ccccc2C1 (stereo not shown) [Compound D59] | 10 to 40 | 10 to 40 |
| Cn1cnc2cc(-c3cccc(OCC(O)CN4CCc5ccccc5C4)c3)ccc21 (stereo not shown) [Compound D60] | 0.101 to 1 | 10 to 40 |
| OC(COc1cccc(-c2cc(C(F)(F)F)ccc2Cl)c1)CN1CCc2ccccc2C1 (stereo not shown) [Compound D62] | 1 to 10 | 10 to 40 |
| CS(=O)(=O)c1ccc(-c2cccc(OCC(O)CN3CCc4ccccc4C3)c2)cc1 (stereo not shown) [Compound D63] | 1 to 10 | 10 to 40 |
| OC(COc1cccc(-c2cccc3cccnc23)c1)CN1CCc2ccccc2C1 (stereo not shown) [Compound D65] | 0.101 to 1 | 10 to 40 |
| CC(=O)c1cccc(-c2cccc(OCC(O)CN3CCc4ccccc4C3)c2)c1 (stereo not shown) [Compound D67] | 1 to 10 | 10 to 40 |
| OC(COc1cccc(-c2cccc(F)c2F)c1)CN1CCc2ccccc2C1 (stereo not shown) [Compound D68] | 10 to 40 | 10 to 40 |
| OCc1cccc(-c2cccc(OCC(O)CN3CCc4ccccc4C3)c2)c1 (stereo not shown) [Compound D72] | 1 to 10 | 10 to 40 |
| COc1cccc(-c2cccc(OCC(O)CN3CCc4ccccc4C3)c2)c1 (stereo not shown) [Compound D74] | 1 to 10 | 10 to 40 |
| COc1ccc(-c2cccc(OCC(O)CN3CCc4ccccc4C3)c2)cc1 (stereo not shown) [Compound D75] | 1 to 10 | 10 to 40 |
| CC1c2ccccc2CCN1CC(O)COc1cccc(-c2ccc3ncn(C)c3c2)c1 (stereo not shown) [Compound D80] | > 20 | 1 to 10 |
| CC(C)n1cnc2ccc(-c3cccc(OCC(O)CN4CCc5ccccc5C4)c3)cc21 (stereo not shown) [Compound D81] | 0.101 to 1 | 10 to 40 |
| COc1ccc(Cn2cnc3ccc(-c4cccc(OCC(O)CN5CCc6ccccc6C5)c4)cc32)cc1 (stereo not shown) [Compound D82] | 1 to 10 | 10 to 40 |
| OC(COc1cccc(-c2ccc3nc[nH]c3c2)c1)CN1CCc2ccccc2C1 (stereo not shown) [Compound D83] | 1 to 10 | 10 to 40 |
| OC(COc1cccc(-c2ccc3nn[nH]c3c2)c1)CN1CCc2ccccc2C1 (stereo not shown) [Compound D84] | 1 to 10 | 1 to 10 |
| OC(COc1cccc(-c2ccc3c(c2)OCCO3)c1)CN1CCc2ccccc2C1 (stereo not shown) [Compound D85] | 1 to 10 | 10 to 40 |

| SMILES | EC50 (Z-138 cells [1]) [µM] | EC50 (Z-138 cells [2]) [µM] |
| --- | --- | --- |
| OC(COc1cccc(-c2cccc3c2oc2ccccc23)c1)CN1CCc2ccccc2C1 (stereo not shown) [Compound D86] | 1 to 10 | 10 to 40 |
| COc1ccc(-c2cccc(OCC(O)CN3CCc4ccccc4C3)c2)c(Cl)c1 (stereo not shown) [Compound D88] | 1 to 10 | 10 to 40 |
| OC(COc1cccc(-c2cnc3ccccc3c2)c1)CN1CCc2ccccc2C1 (stereo not shown) [Compound D89] | 1 to 10 | 10 to 40 |
| COc1ccc(-c2cccc(OCC(O)CN3CCc4ccccc4C3)c2)c(C)c1 (stereo not shown) [Compound D90] | 1 to 10 | 10 to 40 |
| OC(COc1cccc(-c2ccccc2Cl)c1)CN1CCc2ccccc2C1 (stereo not shown) [Compound D92] | 1 to 10 | 10 to 40 |
| OC(COc1cccc(-c2ccc3ncn(C4CNC4)c3c2)c1)CN1CCc2ccccc2C1 (stereo not shown) [Compound D208] | 1 to 10 | 1 to 10 |
| OC(COc1cccc(-c2ccc3ncn(C4CCNC4)c3c2)c1)CN1CCc2ccccc2C1 (stereo not shown) [Compound D209] | 0.101 to 1 | 1 to 10 |
| Cn1cc2ccc(-c3cccc(OCC(O)CN4CCc5ccccc5C4)c3)nc2n1 (stereo not shown) [Compound D210] | 0.101 to 1 | 10 to 40 |
| Cn1ncc2c1CN(c1cccc(OCC(O)CN3CCc4ccccc4C3)c1)CC2 (stereo not shown) [Compound D216] | 1 to 10 | > 20 |
| Cn1cnc2ccc(-c3cc(NCC(O)CN4CCc5ccccc5C4)ccn3)cc21 (stereo not shown) [Compound D217] | 1 to 10 | 10 to 40 |
| CN1CC(n2cnc3ccc(-c4cccc(OCC(O)CN5CCc6ccccc6C5)c4)cc32)C1 (stereo not shown) [Compound D218] | 0.101 to 1 | 1 to 10 |
| CN1CCC(n2cnc3ccc(-c4cccc(OCC(O)CN5CCc6ccccc6C5)c4)cc32)C1 (stereo not shown) [Compound D219] | 0.101 to 1 | 1 to 10 |
| OC(COc1cccc(-c2ccc3ncn(C4CCNCC4)c3c2)c1)CN1CCc2ccccc2C1 (stereo not shown) [Compound D220] | 0.101 to 1 | 1 to 10 |
| CN1CCC(n2cnc3ccc(-c4cccc(OCC(O)CN5CCc6ccccc6C5)c4)cc32)CC1 (stereo not shown) [Compound D221] | 0.101 to 1 | 1 to 10 |
| O=C(Cn1ccc2cnc(-c3cccc(OCC(O)CN4CCc5ccccc5C4)c3)nc21)N1CCOCC1 (stereo not shown) [Compound D222] | 0.101 to 1 | 10 to 40 |
| OC(COc1cccc(-c2cccc3[nH]cnc23)c1)CN1CCc2ccccc2C1 (stereo not shown) [Compound D223] | 0.101 to 1 | 10 to 40 |
| Cn1cc2ccc(-c3cc(NCC(O)CN4CCc5ccccc5C4)ncn3)cc2n1 (stereo not shown) [Compound D224] | 0.101 to 1 | > 20 |
| Cn1ncc2ccc(-c3ccnc(NCC(O)CN4CCc5ccccc5C4)c3)cc21 (stereo not shown) [Compound D226] | 0.101 to 1 | 1 to 10 |
| O=C(Cn1ccc2cnc(-c3ccnc(NCC(O)CN4CCc5ccccc5C4)c3)nc21)N1CCCC1 (stereo not shown) [Compound D233] | < 0.1 | 1 to 10 |
| O=C(Cn1ccc2cnc(-c3ccnc(NCC(O)CN4CCc5ccccc5C4)c3)nc21)N1CCOCC1 (stereo not shown) [Compound D234] | < 0.1 | 0.101 to 1 |
| OC(CNc1cccc(-c2cccc3[nH]cnc23)c1)CN1CCc2ccccc2C1 (stereo not shown) [Compound D235] | 0.101 to 1 | 10 to 40 |
| Cn1cc2ccc(-c3ccnc(NCC(O)CN4CCc5ccccc5C4)c3)cc2n1 (stereo not shown) [Compound D236] | 0.101 to 1 | 1 to 10 |
| Cn1ccc2ccc(-c3cc(NCC(O)CN4CCc5ccccc5C4)ncn3)cc21 (stereo not shown) [Compound D237] | 0.101 to 1 | 10 to 40 |
| Cn1cnc2ccc(-c3ccnc(NCC(O)CN4CCc5ccccc5C4)c3)nc21 (stereo not shown) [Compound D238] | < 0.1 | 1 to 10 |
| Cn1ccc2cnc(-c3ccnc(NCC(O)CN4CCc5ccccc5C4)c3)nc21 (stereo not shown) [Compound D239] | < 0.1 | 1 to 10 |
